{
  "source": "patent US20250145601A1",
  "about": "“NOVEL BICYCLIC COMPOUNDS AS RAD51 INHIBITORS” (SATYA THERAPEUTICS, INC., priority 2022, published 2025)",
  "data": [
    {"tested_on": "MDA MB 231 cells", "test": "Antiproliferation assay in MDA MB 231 cells (Cell Titer Glo)", "assay_type": "cell-based", "details": "Homo sapiens, MDA-MB-231, 216 h, MDAMB231 cell line, 9 day treatment, racemic compounds (Table 2)", "in_short": "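Treated for 9 days in total with rising doses, MDA MB 231 cells (250/well, 37° C, 5% CO2) got fresh compound on day 5. Viability by Cell Titer Glo luminescence (ATP), with cell-free wells subtracted as blank.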", "units": {"inhibition at 10 µM": "%"}, "values": [
      {"smiles": "CCC(=O)N1N=C(c2c(C)c3cnccc3[nH]c2=O)CC1c1ccc(C)cc1", "note": "(stereo not drawn) [Example 85, 4-methyl-3-(1-propionyl-5-(p-tolyl)-4,5-dihydro-1H-pyrazol-3-yl)-1,6-naphthyridin-2(1H)-one]", "inhibition at 10 µM": "≥ 50"},
      {"smiles": "CCC(=O)N1N=C(c2c(C)c3ccc(N4CCOCC4)nc3[nH]c2=O)CC1c1ccc(C)cc1", "note": "(stereo not drawn) [Example 86, 4-methyl-7-morpholino-3-(1-propionyl-5-(p-tolyl)-4,5-dihydro-1H-pyrazol-3-yl)-1,8-naphthyridin-2(1H)-one]", "inhibition at 10 µM": "< 50"},
      {"smiles": "CCC(=O)N1N=C(c2c(C)c3ccc(OCCOC)nc3[nH]c2=O)CC1c1ccc(C)cc1", "note": "(stereo not drawn) [Example 87, 7-(2-methoxyethoxy)-4-methyl-3-(1-propionyl-5-(p-tolyl)-4,5-dihydro-1H-pyrazol-3-yl)-1,8-naphthyridin-2(1H)-one]", "inhibition at 10 µM": "≥ 50"}
    ]}
  ]
}
